Assay results from the NIST ThermoML archive (doi:10.1016/j.tca.2007.04.006).

Assay: molar heat capacity at constant pressure
Conditions: 101.33 kPa, Crystal, Vacuum adiabatic calorimetry

Nc1ccc([N+](=O)[O-])cn1 [2-amino-5-nitropyridine]
Conditions	molar heat capacity at constant pressure [J/K/mol]
239.83 K	130.77
240 K	130.22
242.82 K	132.21
245 K	132.74
245.9 K	133.33
249 K	134.92
250 K	135.28
252.08 K	136.09
255 K	137.85
255.25 K	137.55
258.39 K	138.82
260 K	140.44
261.52 K	140.61
264.62 K	142.67
265 K	143.05
267.71 K	144.57
270 K	145.69
270.79 K	146.14
273.84 K	147.16
275 K	148.34
276.89 K	148.4
279.92 K	149.95
280 K	151.02
282.94 K	151.57
285 K	153.71
286.05 K	152.95
289.25 K	154.4
290 K	156.42
292.39 K	157.06
295 K	159.13
295.48 K	158.97
298.15 K	160.85
298.56 K	161.47
300 K	161.86
301.64 K	163.12
304.71 K	164.66
305 K	164.59
307.77 K	165.74
310 K	167.33
310.83 K	167.2
313.87 K	168.75
315 K	170.06
316.9 K	170.43
319.93 K	172.15
320 K	172.79
323.02 K	174.56
325 K	175.51
326.19 K	175.6
329.34 K	177.96
330 K	178.22
332.48 K	180.37
335 K	180.91
335.62 K	182.54
338.77 K	183.77
340 K	183.58
341.9 K	185.05
345 K	186.22
345.02 K	186.91
348.14 K	188.46
350 K	188.82
351.24 K	190.04
354.33 K	191.86
355 K	191.39
357.42 K	193.4
360 K	193.92
360.58 K	194.97
363.8 K	195.55
365 K	196.39
367.02 K	197.03
370 K	198.81
370.23 K	198.93
373.42 K	200.16
375 K	201.16
376.61 K	202.18
379.79 K	203.08
380 K	203.44
382.96 K	204.62
385 K	205.64
386.12 K	205.85
389.27 K	207.34
390 K	207.76
392.45 K	208.4
395 K	209.78
395.48 K	209.36
